In patent US20080182805A1, “O-GlcNAcase-specific inhibitor and substrate engineered by the extension of the N-Acetyl moiety” (The Gov. of the U.S.A., as represented by the Secretary, …, priority 2007, published 2008):

How the values were obtained:
O-GlcNAcase = biological target: T1, O-GlcNAcase (Homo sapiens, UniProt O60502); experiment: Inhibition of O-GlcNAcase measured with nonselective fluorogenic substrate (3); type: biochemical; settings: fluorescence λex=485 nm, λem=535 nm
T1 construct: made in house
T1 sequence (O60502 1-916): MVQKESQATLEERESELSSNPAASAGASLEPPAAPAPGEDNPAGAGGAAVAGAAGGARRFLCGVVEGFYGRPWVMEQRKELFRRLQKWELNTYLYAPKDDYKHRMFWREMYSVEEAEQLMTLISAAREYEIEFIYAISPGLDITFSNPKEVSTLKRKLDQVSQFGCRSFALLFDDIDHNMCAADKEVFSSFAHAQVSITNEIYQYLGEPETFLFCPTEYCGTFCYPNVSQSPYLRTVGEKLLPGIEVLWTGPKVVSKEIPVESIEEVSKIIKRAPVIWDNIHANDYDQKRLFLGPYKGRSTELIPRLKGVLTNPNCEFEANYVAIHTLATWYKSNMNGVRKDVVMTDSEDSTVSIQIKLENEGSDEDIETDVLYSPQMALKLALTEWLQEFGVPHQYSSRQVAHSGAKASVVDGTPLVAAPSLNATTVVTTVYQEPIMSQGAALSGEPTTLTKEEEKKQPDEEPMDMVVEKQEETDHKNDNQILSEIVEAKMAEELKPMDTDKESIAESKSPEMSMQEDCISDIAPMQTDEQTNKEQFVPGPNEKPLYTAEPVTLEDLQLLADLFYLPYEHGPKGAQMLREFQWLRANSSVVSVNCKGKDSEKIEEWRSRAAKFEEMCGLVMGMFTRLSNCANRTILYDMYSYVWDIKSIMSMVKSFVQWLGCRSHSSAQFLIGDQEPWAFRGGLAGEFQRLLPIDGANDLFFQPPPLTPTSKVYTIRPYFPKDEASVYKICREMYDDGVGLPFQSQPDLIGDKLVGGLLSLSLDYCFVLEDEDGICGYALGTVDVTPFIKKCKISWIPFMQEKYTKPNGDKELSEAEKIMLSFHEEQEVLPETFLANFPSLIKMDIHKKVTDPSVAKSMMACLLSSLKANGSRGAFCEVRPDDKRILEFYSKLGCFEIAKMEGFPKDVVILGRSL
Experimental: (§1) The analysis of (2) was accomplished using previously reported methods.^9,11 For the determination of the inhibitory selectivity of both PUGNAc (1) and 2 at O-GlcNAcase, HEX A, and HEX B, the nonselective fluorogenic substrate (3) was utilized. The level of inhibition was determined based upon the quantification of fluorescence measured in the absence and presence of both PUGNAc (1) and (2) (intensity of fluorescence was measured at λex=485 nm at λem=535 nm). The results are compiled in FIG. 2. The analysis of (4) as a highly specific substrate for O-GlcNAcase activity was performed by the parallel treatment of O-GlcNAcase and HEX A with varying concentrations of (4) over a 45 min incubation period and the quantification of the resulting fluorescence. The results are compiled in FIG. 3.

HEX A = biological target: T2, HEX A (Homo sapiens, UniProt P06865+P07686); experiment: Inhibition of HEX A measured with nonselective fluorogenic substrate (3); type: biochemical; settings: for inhibition of HEX A: fluorescence λex=485 nm, λem=535 nm
T2 sequence (P06865 89-529): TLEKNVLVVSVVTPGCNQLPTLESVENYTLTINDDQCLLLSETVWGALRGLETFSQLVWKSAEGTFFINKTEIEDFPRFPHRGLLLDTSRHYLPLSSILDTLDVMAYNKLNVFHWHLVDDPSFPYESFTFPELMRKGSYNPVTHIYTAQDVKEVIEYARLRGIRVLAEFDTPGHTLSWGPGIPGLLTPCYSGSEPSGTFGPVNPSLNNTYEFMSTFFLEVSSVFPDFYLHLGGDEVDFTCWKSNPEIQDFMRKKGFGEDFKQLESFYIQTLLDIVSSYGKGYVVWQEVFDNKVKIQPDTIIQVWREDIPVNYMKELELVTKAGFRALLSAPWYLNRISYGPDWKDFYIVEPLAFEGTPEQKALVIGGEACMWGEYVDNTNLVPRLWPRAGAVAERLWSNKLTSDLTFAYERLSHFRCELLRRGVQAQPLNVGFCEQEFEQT
T2 sequence (P07686 122-556): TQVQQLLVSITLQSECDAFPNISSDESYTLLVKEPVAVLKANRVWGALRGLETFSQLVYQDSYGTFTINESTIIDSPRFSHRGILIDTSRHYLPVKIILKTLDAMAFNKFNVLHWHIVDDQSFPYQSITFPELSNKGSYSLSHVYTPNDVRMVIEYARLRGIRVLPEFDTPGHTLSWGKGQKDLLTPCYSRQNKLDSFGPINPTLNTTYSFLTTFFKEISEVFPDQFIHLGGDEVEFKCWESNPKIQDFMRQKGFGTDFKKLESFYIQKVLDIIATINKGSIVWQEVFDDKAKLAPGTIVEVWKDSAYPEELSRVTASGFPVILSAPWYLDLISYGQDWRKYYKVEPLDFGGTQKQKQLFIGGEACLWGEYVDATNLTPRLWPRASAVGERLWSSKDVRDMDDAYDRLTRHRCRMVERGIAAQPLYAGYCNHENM
Experimental: as §1

fat cells = settings: cited from earlier work
HEX B = biological target: T3, HEX B (Homo sapiens, UniProt P07686); experiment: Inhibition of HEX B measured with nonselective fluorogenic substrate (3); type: biochemical; settings: fluorescence λex=485 nm, λem=535 nm
T3 sequence (P07686 122-556): T2 sequence (P07686 122-556)
Experimental: as §1

CC(=O)N[C@H]1/C(=N/OC(=O)Nc2ccccc2)O[C@H](CO)[C@@H](O)[C@@H]1O [PUGNAc, O-(2-acet-amido-2-deoxy-D-glucopyranosylidene)amino-N-phenylcarbamate]
inhibition of O-GlcNAcase (O-GlcNAcase): potently inhibit
inhibition of HEX A (HEX A): potently inhibit
effect on insulin resistance in fat cells (fat cells): induces insulin resistance
inhibition of HEX B (HEX B): potently inhibit

CCCCC(=O)N[C@H]1/C(=N/OC(=O)Nc2ccccc2)O[C@H](CO)[C@@H](O)[C@@H]1O [compound 2]
inhibition of O-GlcNAcase (O-GlcNAcase): slightly decreases the inhibitory potency
concentration up to which selectivity (no inhibition) was verified against HEX A (HEX A): > 30 µM
inhibition of HEX A (HEX A): total loss of inhibitory activity
inhibition of HEX B (HEX B): total loss of inhibitory activity
